{"source": "patent US20090142809A1", "about": "“Method for Cleaving Cervimycin Monoesters” (LEIBNIZ-INSTITUT FÜR NATURSTOFF-FORSCHUNG UND INFE, priority 2005, published 2009)", "origin": "cited, not measured here", "key": {"[1]": {"tested_on": "vancomycin-resistant Enterococcus faecalis", "conditions": "statement in words in the background section"}, "[2]": {"tested_on": "multiresistant staphylococci", "conditions": "statement in words in the background section"}}, "data": [{"smiles": "COC1=CC(=O)c2c(cc3c(c2O)C(=O)[C@@]2(O[C@H]4CC[C@H](O[C@H]5CC[C@H](O)[C@@H](C)O5)[C@@H](C)O4)C(O)=C(C(N)=O)C(=O)[C@H](O[C@H]4CC[C@H](O[C@H]5CC[C@H](O[C@H]6CC[C@H](O[C@H]7CC[C@H](O)[C@H](C)O7)[C@H](C)O6)[C@H](C)O5)[C@@H](C)O4)[C@H]2C3)C1=O", "note": "[cervimycin K]", "values": [{"measurement": "activity against the vancomycin-resistant Enterococcus faecalis", "setting": "[1]", "result": "extremely strong activity"}, {"measurement": "activity against multiresistant staphylococci", "setting": "[2]", "result": "extremely strong activity"}]}]}
